Data published in patent US4973673A, “Serine analogs of BU-3608 antibiotics” (Bristol-Myers Company, priority 1988, dated 1990).
≈ marks a conversion by molar mass, not a printed value. Read-outs that look alike come from different tables or passages of the source.

Columns and labels:
C. albicans A9540 [1] = assay: In vivo antifungal activity, intravenous infection in mice; parameters: species or system Male ICR mice; details: Candida albicans, 480 h, survival on 20th day, read-out: PD50 (50% protective dose)
Experimental: (§1) In vivo antifungal activities were evaluated against intravenous infections with Candida albicans A9540, Cryptococcus neoformans IAM4514 and Aspergillus fumigatus IAM2034 in mice. Candida albicans and Cryptococcus neoformans were cultured for 18 and 48 hours, respectively, at 28° C. in YGP medium [yeast extract(0.2%), glucose(1.5%), peptone(0.5%), K2 HPO4 (0.05%) and MgSO4 (0.05%)] and suspended in saline. Aspergillus fumigatus was cultured for 7 days at 28° C. on YGP agar slant and suspended in saline. Spores were collected by filtering fungal suspension through gauze. Male ICR mice weighing 20 to 24 g were infected intravenously with about 10 times the median lethal dose of the fungi.
(§2) Test compounds were administered at various doses to groups of 5 mice each intravenously either once just after fungal challenge (day 0) or once daily for 5 days from day 0 to day 4 (qd×5). The 50% protective dose (PD50) was calculated from survival rates recorded on the 20th day after fungal challenge. All control animals died within 7 to 15 days after fungal infection.

[2] = tested on: Sporothrix schenckii IFO8158; assay: Serial agar dilution MIC, Sabouraud dextrose agar; type: cell-based; details: pH 7.0, 40 hours at 28° C.
Experimental: (§3) Antifungal activities of representative compounds of the present invention were evaluated both in vitro and in vivo. The minimum inhibitory concentrations (MICs) against various fungi were determined by serial agar dilution method using Sabouraud dextrose agar. Thus, approximately 0.003 ml of fungal suspension containing 10^6 cells/ml was applied to the surface of agar plates containing the test antibiotics.

[3] = tested on: Trichophyton mentagrophytes D155; assay: Serial agar dilution MIC, Sabouraud dextrose agar; type: cell-based; details: pH 7.0, 40 hours at 28° C.
Experimental: as §3

A. fumigatus IAM2034 [4] = assay: Serial agar dilution MIC, Sabouraud dextrose agar; type: cell-based; details: Aspergillus fumigatus, pH 7.0, 40 hours at 28° C.
Experimental: as §3

[5] = tested on: Petriellidium boydii IFO8073; assay: Serial agar dilution MIC, Sabouraud dextrose agar; type: cell-based; details: Scedosporium boydii, pH 7.0, 40 hours at 28° C.
Experimental: as §3

[6] = tested on: Blastomyces dermatitidis D40; assay: Serial agar dilution MIC, Sabouraud dextrose agar; type: cell-based; details: pH 7.0, 40 hours at 28° C.
Experimental: as §3

[7] = tested on: Aspergillus fumigatus IAM2530; assay: Serial agar dilution MIC, Sabouraud dextrose agar; type: cell-based; details: pH 7.0, 40 hours at 28° C.
Experimental: as §3

C. albicans A9540 [8] = assay: Serial agar dilution MIC, Sabouraud dextrose agar; type: cell-based; details: Candida albicans, pH 7.0, 40 hours at 28° C.
Experimental: as §3

[9] = tested on: Cryptococcus neoformans D49; assay: Serial agar dilution MIC, Sabouraud dextrose agar; type: cell-based; details: pH 7.0, 40 hours at 28° C.
Experimental: as §3

C. neoformans IAM4514 [10] = assay: Serial agar dilution MIC, Sabouraud dextrose agar; type: cell-based; details: Cryptococcus neoformans, pH 7.0, 40 hours at 28° C.
Experimental: as §3

Mucor spinosus IFO5317 = assay: Serial agar dilution MIC, Sabouraud dextrose agar; type: cell-based; details: pH 7.0, 40 hours at 28° C.
Experimental: as §3

[11] = tested on: Fusarium moniliforme A2284; assay: Serial agar dilution MIC, Sabouraud dextrose agar; type: cell-based; details: Fusarium verticillioides, pH 7.0, 40 hours at 28° C.
Experimental: as §3

A. flavus FA21436 = assay: Serial agar dilution MIC, Sabouraud dextrose agar; type: cell-based; details: Aspergillus flavus, pH 7.0, 40 hours at 28° C.
Experimental: as §3

T. mentagrophytes #4329 = assay: Serial agar dilution MIC, Sabouraud dextrose agar; type: cell-based; details: Trichophyton mentagrophytes, pH 7.0, 40 hours at 28° C.
Experimental: as §3

Candida albicans IAM4888 = assay: Serial agar dilution MIC, Sabouraud dextrose agar; type: cell-based; details: pH 7.0, 40 hours at 28° C.
Experimental: as §3

[12] = tested on: calcium ion and calmodulin-dependent cyclic nucleotide phosphodiesterase; details: background statement; cited from earlier work
mice = assay: Acute toxicity (LD50) in mice, single intravenous dose; type: in vivo; details: at 600 mg/kg, the highest dose tested
Experimental: The LD50 for N,N-dimethyl BU-3608 FA-2 was determined in mice after a single intravenous dose.

A. fumigatus IAM2034 [13] = assay: In vivo antifungal activity, intravenous infection in mice; parameters: species or system Male ICR mice; details: Aspergillus fumigatus, 480 h, survival on 20th day, read-out: PD50 (50% protective dose)
Experimental: as §1, §2

C. neoformans IAM4514 [14] = assay: as above; parameters: species or system Male ICR mice; details: Cryptococcus neoformans, 480 h, survival on 20th day, read-out: PD50 (50% protective dose)
Experimental: as §1, §2

[15] = single dose just after challenge

| SMILES | ED50 (C. albicans A9540 [1]; [15]) [mg/kg] | MIC [2] [µg/mL] | MIC [3] [µg/mL] | MIC (A. fumigatus IAM2034 [4]) [µg/mL] | MIC [5] [µg/mL] | MIC [6] [µg/mL] | MIC [7] [µg/mL] | MIC (C. albicans A9540 [8]) [µg/mL] | MIC [9] [µg/mL] | MIC (C. neoformans IAM4514 [10]) [µg/mL] | MIC (Mucor spinosus IFO5317) [µg/mL] | MIC [11] [µg/mL] | MIC (A. flavus FA21436) [µg/mL] | MIC (T. mentagrophytes #4329) [µg/mL] | MIC (Candida albicans IAM4888) [µg/mL] | also measured |
| --- | --- | --- | --- | --- | --- | --- | --- | --- | --- | --- | --- | --- | --- | --- | --- | --- |
| CN[C@@H]1[C@H](O[C@@H]2OC[C@@H](O)[C@H](O)[C@H]2O)[C@@H](O)[C@H](O[C@H]2c3cc(C)c(C(=O)N[C@H](CO)C(=O)O)c(O)c3-c3c(cc4c(c3O)C(=O)c3cc(OC)cc(O)c3C4=O)[C@@H]2O)O[C@@H]1C [BU-3608 FA-1] | 18 | 1.6 (≈ 1.87 µM) | 6.3 (≈ 7.35 µM) | 6.3 (≈ 7.35 µM) | 12.5 (≈ 14.6 µM) | 3.1 (≈ 3.62 µM) | 3.1 (≈ 3.62 µM) | 12.5 (≈ 14.6 µM) | 0.8 (≈ 0.934 µM) | 0.8 (≈ 0.934 µM) | > 100 | 6.3 (≈ 7.35 µM) | 6.3 (≈ 7.35 µM) | 6.3 (≈ 7.35 µM) | 6.3 (≈ 7.35 µM) | – |
| COc1cc(O)c2c(c1)C(=O)c1c(cc3c(c1O)-c1c(cc(C)c(C(=O)N[C@H](CO)C(=O)O)c1O)[C@H](O[C@@H]1O[C@H](C)[C@H](N)[C@H](O[C@@H]4OC[C@@H](O)[C@H](O)[C@H]4O)[C@H]1O)[C@H]3O)C2=O [BU-3608 FA-2] | 7.4 | 1.6 (≈ 1.9 µM) | 6.3 (≈ 7.48 µM) | 6.3 (≈ 7.48 µM) | 25 (≈ 29.7 µM) | 3.1 (≈ 3.68 µM) | 3.1 (≈ 3.68 µM) | 6.3 (≈ 7.48 µM) | 0.8 (≈ 0.949 µM) | 0.8 (≈ 0.949 µM) | > 100 | 6.3 (≈ 7.48 µM) | 6.3 (≈ 7.48 µM) | 6.3 (≈ 7.48 µM) | 6.3 (≈ 7.48 µM) | – |
| CN[C@@H]1[C@H](O)[C@@H](O)[C@H](O[C@H]2c3cc(C)c(C(=O)N[C@H](CO)C(=O)O)c(O)c3-c3c(cc4c(c3O)C(=O)c3cc(OC)cc(O)c3C4=O)[C@@H]2O)O[C@@H]1C [Des-xylosyl BU-3608 FA-1] | – | 6.3 (≈ 8.69 µM) | 12.5 (≈ 17.2 µM) | 6.3 (≈ 8.69 µM) | > 100 | 6.3 (≈ 8.69 µM) | 6.3 (≈ 8.69 µM) | 3.1 (≈ 4.28 µM) | 1.6 (≈ 2.21 µM) | 1.6 (≈ 2.21 µM) | 12.5 (≈ 17.2 µM) | > 100 | 50 (≈ 69 µM) | 12.5 (≈ 17.2 µM) | 3.1 (≈ 4.28 µM) | – |
| COc1cc(O)c2c(c1)C(=O)c1c(cc3c(c1O)-c1c(cc(C)c(C(=O)N[C@H](CO)C(=O)O)c1O)[C@H](O[C@@H]1O[C@H](C)[C@H](N)[C@H](O)[C@H]1O)[C@H]3O)C2=O [Des-xylosyl BU-3608 FA-2] | – | 6.3 (≈ 8.87 µM) | 12.5 (≈ 17.6 µM) | 12.5 (≈ 17.6 µM) | > 100 | 6.3 (≈ 8.87 µM) | 12.5 (≈ 17.6 µM) | 3.1 (≈ 4.36 µM) | 3.1 (≈ 4.36 µM) | 3.1 (≈ 4.36 µM) | 25 (≈ 35.2 µM) | > 100 | 50 (≈ 70.4 µM) | 12.5 (≈ 17.6 µM) | 3.1 (≈ 4.36 µM) | – |
| COc1cc(O)c2c(c1)C(=O)c1c(cc3c(c1O)-c1c(cc(C)c(C(=O)N[C@H](CO)C(=O)O)c1O)[C@H](O[C@@H]1O[C@H](C)[C@H](N(C)C)[C@H](O)[C@H]1O)[C@H]3O)C2=O [Des-xylosyl N,N-dimethyl BU-3608 FA-2] | – | 3.1 (≈ 4.2 µM) | 6.3 (≈ 8.53 µM) | 6.3 (≈ 8.53 µM) | 100 (≈ 135 µM) | 3.1 (≈ 4.2 µM) | 6.3 (≈ 8.53 µM) | 6.3 (≈ 8.53 µM) | 1.6 (≈ 2.17 µM) | 1.6 (≈ 2.17 µM) | 25 (≈ 33.8 µM) | 50 (≈ 67.7 µM) | 12.5 (≈ 16.9 µM) | 6.3 (≈ 8.53 µM) | 6.3 (≈ 8.53 µM) | – |
| CC(=O)Cc1cc2c(c(O)c1C(=O)O)-c1cc3c(c(O)c1CC2)C(=O)c1c(O)cc(O)cc1C3=O [KS-619-1] | – | – | – | – | – | – | – | – | – | – | – | – | – | – | – | inhibitor of calcium ion and calmodulin-dependent cyclic nucleotide phosphodiesterase [12]: inhibitor of calcium ion and calmodulin-dependentcyclic nucleotide phosphodiesterase |
| COc1cc(O)c2c(c1)C(=O)c1c(cc3c(c1O)-c1c(cc(C)c(C(=O)N[C@H](CO)C(=O)O)c1O)[C@H](O[C@@H]1O[C@H](C)[C@H](N(C)C)[C@H](O[C@@H]4OC[C@@H](O)[C@H](O)[C@H]4O)[C@H]1O)[C@H]3O)C2=O [N,N-dimethyl BU-3608 FA-2] | 9 | 1.6 (≈ 1.84 µM) | 12.5 (≈ 14.4 µM) | 3.1 (≈ 3.56 µM) | – | 6.3 (≈ 7.23 µM) | 3.1 (≈ 3.56 µM) | 6.3 (≈ 7.23 µM) | 0.8 (≈ 0.919 µM) | 0.8 (≈ 0.919 µM) | – | 25 (≈ 28.7 µM) | 25 (≈ 28.7 µM) | 6.3 (≈ 7.23 µM) | 3.1 (≈ 3.56 µM) | LD50 determination: lethal toxicity and toxic signs (mice): neither lethal toxicity nor any significant toxic sign was observed; ED50 (A. fumigatus IAM2034 [13]; qd × 5 (day 0 to day 4)): 15 mg/kg; ED50 (A. fumigatus IAM2034 [13]; [15]): 36 mg/kg; ED50 (C. albicans A9540 [1]; qd × 5 (day 0 to day 4)): 7.5 mg/kg; ED50 (C. neoformans IAM4514 [14]; qd × 5 (day 0 to day 4)): 2.8 mg/kg; ED50 (C. neoformans IAM4514 [14]; [15]): 11 mg/kg |
